Results as given in patent publication US20030087906A1, “NITROGEN SUBSTITUTED BIARYL PURINE DERIVATIVES AS POTENT ANTIPROLIFERATIVE AGENTS” (priority 2001, published 2003).

What was measured:
Experiment in all cases: NCI 60-cell line growth inhibition assay
Type in all cases: cell-based
HS 578T = settings: Homo sapiens; HS 578T (Breast)
MDA-MB-231/ATCC = settings: Homo sapiens; MDA-MB-231/ATCC (Breast)
MDA-MB-435 = settings: Homo sapiens; MDA-MB-435 (Breast)
NCI/ADR-RES = settings: Homo sapiens; NCI/ADR-RES (Breast)
T-47D = settings: Homo sapiens, T47D; T-47D (Breast)
SF-268 = settings: Homo sapiens; SF-268 (CNS)
SF-295 = settings: Homo sapiens; SF-295 (CNS)
SF-539 = settings: Homo sapiens; SF-539 (CNS)
SNB-19 = settings: Homo sapiens; SNB-19 (CNS)
SNB-75 = settings: Homo sapiens; SNB-75 (CNS)
U251 = settings: Homo sapiens, U-251; U251 (CNS)
HCC-2998 = settings: Homo sapiens; HCC-2998 (Colon)
HCT-116 = settings: Homo sapiens; HCT-116 (Colon)
HT29 = settings: Homo sapiens, HT-29; HT29 (Colon)
KM12 = settings: Homo sapiens; KM12 (Colon)
SW-620 = settings: Homo sapiens; SW-620 (Colon)
CCRF-CEM = settings: Homo sapiens; CCRF-CEM (Leukemia)
HL-60(TB) = settings: Homo sapiens; HL-60(TB) (Leukemia)
K-562 = settings: Homo sapiens, K562; K-562 (Leukemia)
MOLT-4 = settings: Homo sapiens; MOLT-4 (Leukemia)
RPMI-8226 = settings: Homo sapiens; RPMI-8226 (Leukemia)
SR = settings: Homo sapiens; SR (Leukemia)
M14 = settings: Homo sapiens; M14 (Melanoma)
SK-MEL-2 = settings: Homo sapiens; SK-MEL-2 (Melanoma)
SK-MEL-28 = settings: Homo sapiens; SK-MEL-28 (Melanoma)
SK-MEL-5 = settings: Homo sapiens; SK-MEL-5 (Melanoma)
UACC-62 = settings: Homo sapiens; UACC-62 (Melanoma)
HOP-92 = settings: Homo sapiens; HOP-92 (Non-Small Cell Lung)
NCI-H23 = settings: Homo sapiens; NCI-H23 (Non-Small Cell Lung)
NCI-H522 = settings: Homo sapiens; NCI-H522 (Non-Small Cell Lung)
OVCAR-4 = settings: Homo sapiens; OVCAR-4 (Ovarian)
OVCAR-5 = settings: Homo sapiens; OVCAR-5 (Ovarian)
PC-3 = settings: Homo sapiens; PC-3 (Prostate)
786-0 = settings: Homo sapiens; 786-0 (Renal)
ACHN = settings: Homo sapiens; ACHN (Renal)
CAKI-1 = settings: Homo sapiens; CAKI-1 (Renal)
RXF 393 = settings: Homo sapiens; RXF 393 (Renal)
SN12C = settings: Homo sapiens; SN12C (Renal)
UO-31 = settings: Homo sapiens; UO-31 (Renal)
UACC-257 = settings: Homo sapiens; UACC-257 (Melanoma)
NCI-H322M = settings: Homo sapiens; NCI-H322M (Non-Small Cell Lung)

## CC(=O)N[C@H]1CC[C@H](Nc2nc(NCc3ccc(-c4ccccc4)nc3)c3ncn(C(C)C)c3n2)CC1 [Compound 87]
HS 578T
  GI50: < 10 nM
MDA-MB-231/ATCC
  GI50: < 10 nM
MDA-MB-435
  GI50: < 10 nM
NCI/ADR-RES
  GI50: 280 nM
T-47D
  GI50: 48 nM
SF-268
  GI50: < 10 nM
SF-295
  GI50: 47 nM
SF-539
  GI50: 81 nM
SNB-19
  GI50: 38 nM
SNB-75
  GI50: 12 nM
U251
  GI50: 28 nM
HCC-2998
  GI50: < 10 nM
HCT-116
  GI50: 37 nM
HT29
  GI50: < 10 nM
KM12
  GI50: < 10 nM
SW-620
  GI50: < 10 nM
CCRF-CEM
  GI50: < 10 nM
HL-60(TB)
  GI50: < 10 nM
K-562
  GI50: 24 nM
MOLT-4
  GI50: 20 nM
RPMI-8226
  GI50: < 10 nM
SR
  GI50: 32 nM
M14
  GI50: < 10 nM
SK-MEL-2
  GI50: 56 nM
SK-MEL-28
  GI50: < 10 nM
SK-MEL-5
  GI50: 28 nM
UACC-62
  GI50: 45 nM
HOP-92
  GI50: 88 nM
NCI-H23
  GI50: 22 nM
NCI-H522
  GI50: < 10 nM
OVCAR-4
  GI50: 48 nM
OVCAR-5
  GI50: 51 nM
PC-3
  GI50: 18 nM
786-0
  GI50: 47 nM
ACHN
  GI50: 190 nM
CAKI-1
  GI50: 64 nM
RXF 393
  GI50: 11 nM
SN12C
  GI50: < 10 nM
UO-31
  GI50: 16 nM

## CC(=O)N[C@H]1CC[C@H](Nc2nc(NCc3ccc(-c4ccccn4)cc3)c3ncn(C(C)C)c3n2)CC1 [Compound 79]
HS 578T
  GI50: < 10 nM
MDA-MB-231/ATCC
  GI50: < 10 nM
MDA-MB-435
  GI50: < 10 nM
NCI/ADR-RES
  GI50: 860 nM
T-47D
  GI50: < 10 nM
SF-268
  GI50: < 10 nM
SF-295
  GI50: < 10 nM
SF-539
  GI50: < 10 nM
SNB-19
  GI50: < 10 nM
SNB-75
  GI50: < 10 nM
U251
  GI50: < 10 nM
HCC-2998
  GI50: < 10 nM
HCT-116
  GI50: < 10 nM
HT29
  GI50: < 10 nM
KM12
  GI50: < 10 nM
SW-620
  GI50: < 10 nM
CCRF-CEM
  GI50: < 10 nM
HL-60(TB)
  GI50: < 10 nM
K-562
  GI50: < 10 nM
MOLT-4
  GI50: < 10 nM
RPMI-8226
  GI50: < 10 nM
SR
  GI50: < 10 nM
M14
  GI50: < 10 nM
SK-MEL-2
  GI50: < 10 nM
SK-MEL-28
  GI50: < 10 nM
SK-MEL-5
  GI50: < 10 nM
UACC-257
  GI50: < 10 nM
UACC-62
  GI50: < 10 nM
HOP-92
  GI50: < 10 nM
NCI-H23
  GI50: < 10 nM
NCI-H322M
  GI50: < 10 nM
NCI-H522
  GI50: < 10 nM
OVCAR-4
  GI50: < 10 nM
OVCAR-5
  GI50: < 10 nM
PC-3
  GI50: < 10 nM
786-0
  GI50: < 10 nM
ACHN
  GI50: < 10 nM
CAKI-1
  GI50: < 10 nM
RXF 393
  GI50: < 10 nM
SN12C
  GI50: < 10 nM
UO-31
  GI50: < 10 nM

## CC(C)n1cnc2c(NCc3ccc(-c4ccsc4)cc3)nc(N[C@H]3CC[C@H](N)CC3)nc21 [Compound 12]
HS 578T
  GI50: < 5 nM
MDA-MB-231/ATCC
  GI50: < 5 nM
MDA-MB-435
  GI50: < 5 nM
NCI/ADR-RES
  GI50: 1260 nM
T-47D
  GI50: 8.8 nM
SF-268
  GI50: < 5 nM
SF-295
  GI50: 18 nM
SF-539
  GI50: 22 nM
SNB-19
  GI50: 16 nM
SNB-75
  GI50: < 5 nM
U251
  GI50: 7.8 nM
HCC-2998
  GI50: < 5 nM
HCT-116
  GI50: 8.9 nM
HT29
  GI50: < 5 nM
KM12
  GI50: < 5 nM
SW-620
  GI50: < 5 nM
CCRF-CEM
  GI50: < 5 nM
HL-60(TB)
  GI50: < 5 nM
K-562
  GI50: < 5 nM
MOLT-4
  GI50: < 5 nM
RPMI-8226
  GI50: < 5 nM
SR
  GI50: < 5 nM
M14
  GI50: < 5 nM
SK-MEL-2
  GI50: 9.6 nM
SK-MEL-28
  GI50: 10 nM
UACC-257
  GI50: 8 nM
UACC-62
  GI50: 27 nM
HOP-92
  GI50: 11 nM
NCI-H23
  GI50: < 5 nM
NCI-H322M
  GI50: < 5 nM
NCI-H522
  GI50: < 5 nM
OVCAR-4
  GI50: < 5 nM
OVCAR-5
  GI50: 17 nM
PC-3
  GI50: < 5 nM
786-0
  GI50: 6.5 nM
ACHN
  GI50: 39 nM
RXF 393
  GI50: < 5 nM
SN12C
  GI50: < 5 nM
UO-31
  GI50: 63 nM

## Cn1cnc2c(NCc3ccccc3)nc(NCCO)nc21 [Olomoucine, reference compound]
HS 578T
  GI50: 63000 nM
MDA-MB-231/ATCC
  GI50: 100000 nM
MDA-MB-435
  GI50: 63000 nM
NCI/ADR-RES
  GI50: 100000 nM
T-47D
  GI50: 63000 nM
SF-268
  GI50: 50000 nM
SF-295
  GI50: 79000 nM
SF-539
  GI50: 32000 nM
SNB-19
  GI50: 63000 nM
SNB-75
  GI50: 25000 nM
U251
  GI50: 50000 nM
HCC-2998
  GI50: 63000 nM
HCT-116
  GI50: 40000 nM
HT29
  GI50: 63000 nM
KM12
  GI50: 40000 nM
SW-620
  GI50: 40000 nM
CCRF-CEM
  GI50: 40000 nM
HL-60(TB)
  GI50: 40000 nM
K-562
  GI50: 100000 nM
MOLT-4
  GI50: 63000 nM
RPMI-8226
  GI50: 50000 nM
SR
  GI50: 25000 nM
M14
  GI50: 100000 nM
SK-MEL-2
  GI50: 100000 nM
SK-MEL-28
  GI50: 50000 nM
SK-MEL-5
  GI50: 40000 nM
UACC-257
  GI50: 79000 nM
UACC-62
  GI50: 32000 nM
HOP-92
  GI50: 50000 nM
NCI-H23
  GI50: 79000 nM
NCI-H322M
  GI50: 63000 nM
NCI-H522
  GI50: 40000 nM
OVCAR-4
  GI50: 100000 nM
OVCAR-5
  GI50: 40000 nM
PC-3
  GI50: 100000 nM
786-0
  GI50: 63000 nM
ACHN
  GI50: 25000 nM
CAKI-1
  GI50: 32000 nM
RXF 393
  GI50: 20000 nM
SN12C
  GI50: 100000 nM
UO-31
  GI50: 32000 nM
